One block for each compound: values may come before it.
Experiments:
[1] = molecular target: T1, BLT2-expressing cells (CHO-BLT2 cells) (Homo sapiens, UniProt Q9NPC1); test: MTT cell growth of LTB4-stimulated BLT2-expressing cells; type: cell-based; details: LTB4 300 nM; for cell growth compared with the control DMSO: pre-treated at 10 μM; for inhibition at 10 µM: read-out: growth inhibitory effect
T1 construct: HA; expressed in transfected cells
T1 sequence (Q9NPC1 with tags, fused parts or gaps): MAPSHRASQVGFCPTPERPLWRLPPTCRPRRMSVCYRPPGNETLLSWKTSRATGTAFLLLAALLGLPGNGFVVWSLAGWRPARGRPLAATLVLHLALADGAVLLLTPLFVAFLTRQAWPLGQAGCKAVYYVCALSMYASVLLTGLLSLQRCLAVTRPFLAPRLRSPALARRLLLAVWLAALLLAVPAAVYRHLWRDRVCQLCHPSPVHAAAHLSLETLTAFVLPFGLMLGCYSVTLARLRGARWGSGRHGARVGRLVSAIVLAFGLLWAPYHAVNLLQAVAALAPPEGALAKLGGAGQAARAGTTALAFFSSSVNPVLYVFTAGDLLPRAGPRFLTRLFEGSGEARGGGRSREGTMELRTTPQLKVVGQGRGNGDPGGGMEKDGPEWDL
Method: Cell viability according to treatment of the compounds prepared in the examples were measured by a 3-(4,5-dimethylthiazol-2-yl)-2,5-diphenyltetrazolium bromide (MTT) method.
More specifically, 1×10^4 each of the BLT2-nonexpressing cells (CHO-pcDNA3.1 cells) and BLT2-expressing cells (CHO-BLT2 cells), which were prepared in Experimental Example 1, were dispensed in a […], and cultured for 24 hours. Afterward, the culture medium was removed, a serum-free RPMI medium was added, and after two hours, the cells were pre-treated with each of the compound prepared in one of the examples (10 μM), 10 μM DMSO (compound solvent) as a control, and 10 μM 1-[5-ethyl-2-hydroxy-4-[[6-methyl-6-(1H-tetrazol-5-yl)heptyl]oxy]phenyl]-ethanone (LY255283; Cayman) as a positive control for 1 hour. Subsequently, after treatment of LTB4 (300 nM), the cells were cultured for 24 hours. 20 μL of an MTT solution (5 mg/mL, Sigma-Aldrich) was added to each well, the cells were cultured in a humid CO2 incubator at 37° C. for 4 hours, a supernatant was removed, and 200 μL of DMSO was added to each well to dissolve insoluble violet formazan crystals. Absorbance was measured using a microplate reader (Molecular Devices, Sunnyvale, Calif.) at 550 nm, and the measurement was repeated three times.

BLT2 = molecular target: T2, BLT2 (Homo sapiens, UniProt Q9NPC1); test: LTB4-induced chemotactic motility, Transwell, CHO-BLT2 cells; type: cell-based; details: LTB4 300 nM; for inhibition at 10 µM: read-out: chemotactic motility inhibited compared with LTB4 (DMSO+)
T2 construct: HA; expressed in transfected cells
T2 sequence (Q9NPC1 with tags, fused parts or gaps): T1 sequence (Q9NPC1 with tags, fused parts or gaps)
Method: (§1) Chemotactic motility was analyzed using a Transwell chamber including a polycarbonate filter (8-μm pore size, Corning Costar) with a 6.5-mm diameter. Specifically, the lower surface of the filter was coated with 10 μg/mL fibronectin in a serum-free RPMI 1640 medium at 37° C. for 1 hour. The experiment was performed by placing the filter dried and coated with RPMI 1640 media containing various amounts of LTB4 in the lower wells of the Transwell chamber, and loading CHO cells stably expressing BLT1 and BLT2 into the upper wells containing serum-free RPMI 1640 media finally at 2×10^4 cells/100 μL. To evaluate the effect of inhibitors, the cells were pre-treated with each inhibitor for 30 minutes before dispensing. After the cells were cultured at 37° C. in 5% CO2 for 3 hours, the filters were fixed with methanol for 3 minutes, and stained with hematoxylin and eosin for 10 minutes. In the experiment, the cells were BLT2-expressing cells (CHO-BLT2 cells) and BLT1-expressing cells (CHO-BLT1 cells), and LY255283 and U75302 were used as positive controls for each type of the cells, and BLT2 ligand LTB4, (300 nM), BLT1 ligand LTB4 (10 nM), and lysophosphatidic acid (LPA; 100 nM) were used as comparative controls. The chemotactic motility was quantitatively analyzed by counting the cells on the lower side of the filter under an optical microscope (magnification, 200×). For each analysis, 6 fields were subjected to counting, each sample was analyzed twice, and the analysis was repeated three times.

BLT1 = molecular target: T3, BLT1 (Homo sapiens, UniProt Q15722); test: LTB4-induced chemotactic motility, Transwell, CHO-BLT1 cells; type: cell-based; details: 10 μM pre-treatment, LTB4 10 nM
T3 construct: expressed in transfected cells; host or cells: CHO cells stably expressing BLT1 (CHO-BLT1)
Method: as §1

[2] = test system: cancer cells (MDA-MB-231); test: Metastasis of breast cancer cells in nude mice; type: in vivo; details: MDA-MB-231 in nude mice, i.p.; LMT-696 and LY255283 2.5 mg/kg, U75302 0.25 mg/kg; 15 weeks
Method: An experiment for the metastasis of breast cancer cells according to the treatment of the compound of the present invention was approved by the Ethics Committee of Korea University, and all experimental animals used in this experiment were treated according to the approved guidelines of the Korea University Animal Care and Use Committee. Six-week-old female nude mice (Charles River, Wilmington, Mass.) were injected with cancer cells to confirm cancer cell metastasis. The breast cancer cells were pre-treated with the compound of the present invention (LMT-696, 10 μM), LY255283, U75302 and DMSO, and 24 hours later, harvested with trypsin-EDTA, resuspended in PBS, and then 2×10^6 of the breast cancer cells were intraperitoneally injected into mice anesthetized with zoletil (50 mg/kg). After five days, the compound of the present invention (LMT-696; 2.5 mg/kg), LY255283 (2.5 mg/kg), U75302 (0.25 mg/kg) and DMSO were injected intraperitoneally three times every five days. At 15 weeks after the injection of the breast cancer cells, the mice were dissected to observe the cancer cell metastasis.

[3] = test system: asthma-induced mice (OVA+LPS); test: OVA+LPS-induced severe asthma mice: AHR and cell influx; type: in vivo; details: 10 mg/kg, airway constrictor 50 mg/ml
Excerpt: Mast cells play a pivotal role in the initial reaction to asthma, and when an allergen enters the body from the outside through an airway, the mast cells are activated, thereby secreting various cytokines (interleukin-4 and interleukin-13). Due to the cytokines, the influx of inflammatory cells, the generation of mucus and the airway contraction occur. The inventors used 7-week-old (18 to 20 g) female BALB/c mice provided by Orient (Seoungnam, Korea) for the experiment to confirm the antiasthma effect, and then the asthma was induced in the mice. On the first and 14th days, 2.5 mg of an adjuvant, aluminum hydroxide gel (alum; Pierce, Rockford, Ill.) was included in […] of ovalbumin (OVA) to intraperitoneally sensitize female […] mice. On the 21st, 22nd and 23rd days of two initial sensitizations, 1% OVA was sprayed into the mice using an ultrasonic nebulizer. The compound of the present invention (LMT-696; 5 mg/kg), LY255283 (5 mg/kg, Cayman) or DMSO was intraperitoneally injected at the 1 hour before the 1% OVA spraying. On the 24th day of the initial sensitization, airway hyperresponsiveness (AHR) was detected, and on the 25th day, the mice were dissected to observe asthma phenotypes, for example, inflammatory cytokine IL-4 expression and the influx of inflammatory cells (neutrophils). In the case of lipopolysaccharide (LPS)-induced severe asthma animal models, on the 0, 1st, 2nd and 7th days, 75 μg of OVA and 1 mg of LPS were intranasally injected into Balb/c mice for sensitization. On the 14th, 15th, 21th and 22th days, 50 μg of OVA was injected into the nose for a challenge. The compound of the present invention (LMT-1013) (1, 3, 10 or 30 mg/kg), montelukast (10 mg/kg, DRS) or a control buffer (10% DMA, 5% Tween 80, 85% brine) were treated one hour before the challenge by injecting 50 μg of OVA into the nose. On the 23rd day of the initial sensitization, AHR was detected, and on the 24th day, the mice were dissected to observe a severe asthma phenotype, for example, the influx of the inflammatory cells (neutrophils). In addition, the AHR detection was performed after an airway constrictor, methacholine (6.25 to 50 mg/ml depending on conditions), was administered to the mice. The administration of the airway constrictor was performed by spraying through an inlet of the chamber using an ultrasonic nebulizer for 3 minutes. The AHR was analyzed using an enhanced pause as the indicator of the asthma phenomenon. Bronchoalveolar lavage fluid cell counts were quantified by counting cells under an optical microscope (magnification, 200×). In each analysis, 4 fields were subjected to counting, each sample was analyzed twice, and the analysis was repeated three times.

T3 sequence (Q15722 whole entry, species assumed): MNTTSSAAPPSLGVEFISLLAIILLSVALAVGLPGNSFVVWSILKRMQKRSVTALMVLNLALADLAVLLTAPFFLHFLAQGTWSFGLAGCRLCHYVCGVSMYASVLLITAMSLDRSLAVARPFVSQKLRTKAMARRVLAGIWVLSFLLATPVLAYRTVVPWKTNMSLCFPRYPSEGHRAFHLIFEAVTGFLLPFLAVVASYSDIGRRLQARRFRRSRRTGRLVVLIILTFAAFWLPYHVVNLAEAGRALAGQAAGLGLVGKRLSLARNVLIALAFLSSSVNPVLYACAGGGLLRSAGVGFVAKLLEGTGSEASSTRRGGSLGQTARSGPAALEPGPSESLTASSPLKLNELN

SMILES: CCCCC(=O)N(CC#Cc1ccc(C(=O)N2CCN(C)CC2)cc1)c1ccccc1 [LMT-692, N-(3-(4-(4-methylpiperazine-1-carbonyl)phenyl)prop-2-ynyl)-N-phenylpentanamide]
cell growth compared with the control DMSO [1]: 88.0% | inhibition at 10 µM (BLT2; 10 μM pre-treatment): 66% | IC50 (BLT2; serum-free, read-out: IC50 of chemotactic motility inhibition): 7.57 µM | inhibitory effect on chemotactic motility (BLT1): did not exhibit the inhibitory effect

SMILES: CCCCC(=O)N(CC#Cc1ccc(C(=O)N(CC)CC)cc1)c1ccccc1 [LMT-883, N,N-diethyl-4-(3-(N-phenylpentaneamido)prop-1-ynyl)benzamide]
inhibition at 10 µM [1]: 99%

SMILES: CCCCC(=O)N(CC#Cc1ccc(C(=O)NCCN(C)C)cc1)c1ccccc1 [LMT-1016, N-(2-(dimethylamino)ethyl)-4-(3-(N-phenylpentaneamido)prop-1-yn-1-yl)benzamide]
inhibition at 10 µM [1]: 99%

SMILES: CCc1cc(C(C)=O)c(O)cc1OCCCCCC(C)(C)c1nnn[nH]1 [LY255283, 1-[5-ethyl-2-hydroxy-4-[[6-methyl-6-(1H-tetrazol-5-yl)heptyl]oxy]phenyl]-ethanone, reference compound]
cell growth compared with the control DMSO [1]: approximately 90% | chemotactic motility as compared with cells treated with the ligand LTB4 (BLT2; 10 μM pre-treatment): 90% | metastasis of the cancer cells inhibited as compared with the control [2]: 36%

SMILES: CCCCC/C=C\C[C@@H](O)/C=C/c1cccc(C[C@@H](O)CCCCO)n1 [U75302, reference compound]
chemotactic motility as compared with cells treated with the ligand LTB4 (BLT1): 90% | metastasis of the cancer cells inhibited as compared with the control [2]: not inhibited

SMILES: CC(C)(O)c1ccccc1CC[C@@H](SCC1(CC(=O)O)CC1)c1cccc(/C=C/c2ccc3ccc(Cl)cc3n2)c1 [montelukast, reference compound]
AHR reduced [3]: 64%

Next, values leading:

cell growth compared with the control DMSO [1]: 16.7% | inhibition at 10 µM (BLT2; 10 μM pre-treatment): 90% | inhibitory effect on chemotactic motility (BLT1): did not exhibit the inhibitory effect
SMILES: CCCCC(=O)N(CC#Cc1ccc(C(=O)N2CCNCC2)cc1)c1ccccc1 [LMT-694, N-phenyl-N-(3-(4-(piperazine-1-carbonyl)phenyl)prop-2-ynyl)pentanamide]

inhibition at 10 µM [1]: 65%
SMILES: CCCCC(=O)N(CC#Cc1cccc(C(=O)N2CCNCC2)c1)c1ccccc1 [LMT-837, N-phenyl-N-(3-(3-(piperazine-1-carbonyl)phenyl)prop-2-ynyl)pentaneamide]

inhibition at 10 µM [1]: 60%
SMILES: CCCCC(=O)N(CC#Cc1ccc(C(=O)N2CCN(C(C)C)CC2)cc1)c1ccc(F)cc1 [LMT-841, N-(4-fluorophenyl)-N-(3-(4-(4-isopropylpiperazine-1-carbonyl)phenyl)prop-2-ynyl)pentaneamide]

inhibition at 10 µM [1]: 70%
SMILES: CCCCC(=O)N(CC#Cc1cccc(C(=O)N2CCN(C(C)C)CC2)c1)c1ccccc1 [LMT-842, N-(3-(3-(4-isopropylpiperazine-1-carbonyl)phenyl)prop-2-ynyl)-N-phenylpentaneamide]

inhibition at 10 µM [1]: 99%
SMILES: CCCCC(=O)N(CC#Cc1ccc(C(=O)N2CCN(C(C)C)CC2)cc1)c1cccc(F)c1 [LMT-886, N-(3-fluorophenyl)-N-(3-(4-(4-isopropylpiperazine-1-carbonyl)phenyl)prop-2-ynyl)pentaneamide]

inhibition at 10 µM [1]: 71.6%
SMILES: CCCCC(=O)N(CC#Cc1ccc(C(=O)NC(C)C(=O)OC)cc1)c1ccccc1 (stereo not drawn) [LMT-1018, methyl 2-(4-(3-(N-phenylpentaneamido)prop-1-yn-1-yl)benzamido)propanoate]

inhibition at 10 µM [1]: 99%
SMILES: CCCCC(=O)N(CC#Cc1ccc(C(=O)NC(C)C(=O)O)cc1)c1ccccc1 (stereo not drawn) [LMT-1019, 2-(4-(3-(N-phenylpentaneamido)prop-1-yn-1-yl)benzamido)propanoic acid]

Source: patent US10766857B2, “Compound having BLT inhibitory activity and composition, for preventing or treating inflammatory diseases, comprising same as active ingredient” (DONGGUK UNIVERSITY INDUSTRY-ACADEMIC COOPERATION FOUNDATION, priority 2015, dated 2020)
